Measured values reported in patent US20210302459A1, “Biosensor Storage Methods” (Queen's University at Kingston, priority 2020, published 2021).

What was measured:
Type in all cases: binding
[1] = target: T1, TLR2/6 biosensor (TLR2 and TLR6 proteins immobilized on gold electrode) (Mus musculus, UniProt Q9EPW9+Q9QUN7); test: Electrochemical impedance response (ΔRct %) of freshly prepared TLR2/6 biosensors to isolated PAMPs
T1 construct: Fc (fusion partner, Fc chimera); purchased R&D Systems Inc. 1530-TR-050 (TLR2); 1533-TR-050 (TLR6)
T1 sequence (Q9QUN7 with tags, fused parts or gaps limits assumed): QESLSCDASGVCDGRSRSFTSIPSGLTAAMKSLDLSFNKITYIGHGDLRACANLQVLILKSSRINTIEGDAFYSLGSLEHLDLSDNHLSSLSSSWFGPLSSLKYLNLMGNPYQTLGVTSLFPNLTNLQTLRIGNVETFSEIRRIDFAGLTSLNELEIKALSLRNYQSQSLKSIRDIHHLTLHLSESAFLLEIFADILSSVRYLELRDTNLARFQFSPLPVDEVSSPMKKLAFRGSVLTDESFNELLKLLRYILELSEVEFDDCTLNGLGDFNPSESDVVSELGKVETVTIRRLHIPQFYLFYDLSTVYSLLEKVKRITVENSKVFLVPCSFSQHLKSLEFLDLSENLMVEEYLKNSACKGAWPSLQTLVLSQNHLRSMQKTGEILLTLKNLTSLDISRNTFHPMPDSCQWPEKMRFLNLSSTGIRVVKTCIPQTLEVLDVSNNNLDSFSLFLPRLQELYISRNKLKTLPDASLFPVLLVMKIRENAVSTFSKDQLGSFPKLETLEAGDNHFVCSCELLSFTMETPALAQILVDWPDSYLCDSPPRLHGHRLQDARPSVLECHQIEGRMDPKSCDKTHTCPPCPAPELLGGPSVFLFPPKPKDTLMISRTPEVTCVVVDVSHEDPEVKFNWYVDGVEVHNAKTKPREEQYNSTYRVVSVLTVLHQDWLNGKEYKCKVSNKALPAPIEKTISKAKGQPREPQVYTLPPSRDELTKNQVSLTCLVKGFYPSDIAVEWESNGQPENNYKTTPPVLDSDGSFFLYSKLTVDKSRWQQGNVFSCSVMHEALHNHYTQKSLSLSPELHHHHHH
T1 sequence (Q9EPW9 with tags, fused parts or gaps limits assumed): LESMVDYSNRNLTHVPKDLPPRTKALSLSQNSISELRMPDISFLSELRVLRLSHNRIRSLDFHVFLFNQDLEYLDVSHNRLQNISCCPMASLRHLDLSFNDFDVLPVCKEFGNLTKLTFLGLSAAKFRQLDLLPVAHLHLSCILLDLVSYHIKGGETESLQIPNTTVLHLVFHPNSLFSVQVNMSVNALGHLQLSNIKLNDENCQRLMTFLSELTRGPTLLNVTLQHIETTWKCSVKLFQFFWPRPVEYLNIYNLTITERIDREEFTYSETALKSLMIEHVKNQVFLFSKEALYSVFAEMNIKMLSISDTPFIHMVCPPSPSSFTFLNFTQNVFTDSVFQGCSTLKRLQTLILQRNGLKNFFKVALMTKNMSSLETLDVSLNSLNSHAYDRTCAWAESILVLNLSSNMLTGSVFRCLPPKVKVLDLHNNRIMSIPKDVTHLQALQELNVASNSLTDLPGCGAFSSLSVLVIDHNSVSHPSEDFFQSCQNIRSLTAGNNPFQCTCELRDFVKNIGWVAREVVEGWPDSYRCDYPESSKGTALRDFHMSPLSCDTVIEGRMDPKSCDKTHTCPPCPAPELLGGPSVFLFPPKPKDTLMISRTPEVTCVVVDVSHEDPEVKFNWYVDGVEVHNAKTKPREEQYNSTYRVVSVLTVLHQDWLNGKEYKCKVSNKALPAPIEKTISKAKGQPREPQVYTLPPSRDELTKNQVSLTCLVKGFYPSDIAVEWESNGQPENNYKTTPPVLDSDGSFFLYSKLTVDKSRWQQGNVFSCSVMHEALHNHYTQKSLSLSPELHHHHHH
Experimental: As shown in FIGS. 1A-B, a TLR2/6 biosensor was prepared following the steps as shown. Specifically, TLR biosensors were prepared using DropSens gold screen printed electrode (SPE). 1-lipoic acid n-hydroxysuccinimide ester (LPA, a linker molecule) was synthesized following a published protocol (see Howarth, M., et al., Nat. Methods, 2008, 5, 397-399). LPA solution at a concentration of 2 mM was prepared using ethanol/MQ water (volume ratio of 1:1). A clean plastic petri dish was lined with a filter paper which was dampened with a 1:1 solution of ethanol and MQ. The DropSens SPE was placed on the filter paper and 50 μL of the 2 mM LPA solution was dropped onto the working electrode. The petri dish was sealed with parafilm and placed in a fridge at 277 K for 24 hours. An additional 50 μL of the 2 mM LPA solution was cast onto a working electrode and returned to the fridge for another 24 hours. After a total of 48 hours the SPE was rinsed thoroughly with ethanol and MQ water before blown dry with nitrogen. TLR2 and TLR6 proteins were individually reconstituted into solutions at a concentration of 200 μg/mL using PBS buffer (pH ˜7.4). The TLR2/6 protein mixture was prepared by mixing 100 μL of TLR2 and 100 μL of TLR6 and mixing on a vortex machine for 30 seconds in a 1.5 mL microcentrifuge tube. The SPEs were placed in petri dishes with filter papers dampened with PBS buffer (pH ˜7.4). A small drop of TLR 2/6 mixture (5 μL) was dispensed onto each working electrode and then the petri dishes were sealed with PARAFILM™ and left in the fridge at 277 K for 72 hours. The electrodes were rinsed with MQ water after the immersion and blown dry with nitrogen. An ethanolamine-tris buffer solution was prepared by dissolving 1.2 g of ethanolamine, 0.121 g tris base in 20 mL of MQ water. The pH of the solution was adjusted to 8.4 using concentrated hydrochloric acid. After the step of immobilizing TLR2/6 proteins, electrode surfaces were immersed in ethanolamine solutions for 1 hour to deactivate unreacted ester groups on the LPA monolayer.
All electrochemical measurements were preformed in faraday cages using DRP-CAC adapters for SPEs being measured. Cyclic voltammetry (CV), square wave voltammetry (SWV), and electrochemical impedance spectroscopy (EIS) measurements were completed using CHI6055E potentiostats (CH Instruments of Austin, Tex., USA). […] The experimental EIS curves were evaluated to determine the film resistance using ZSimpWin 2.0 software (available from AMETEK® Scientific Instruments of Berwyn, Pa., USA). […]
(§1) Sensor responses to different concentrations of Pam2CSK4, a gram-positive PAMP, were evaluated. […] Reduction in measured current correlated to the binding of Pam2CSK4 onto the TLR2/6 biosensor. […]

[2] = target: T1, TLR2/6 biosensor (TLR2 and TLR6 proteins immobilized on gold electrode); test: Cyclic voltammetry peak current of TLR2/6 biosensors after exposure to analyte; settings: concentration increased 0.1 to 50.0 μM; reduced from 147 μA
Experimental: As shown in FIGS. 1A-B, a TLR2/6 biosensor was prepared following the steps as shown. Specifically, TLR biosensors were prepared using DropSens gold screen printed electrode (SPE). 1-lipoic acid n-hydroxysuccinimide ester (LPA, a linker molecule) was synthesized following a published protocol (see Howarth, M., et al., Nat. Methods, 2008, 5, 397-399). LPA solution at a concentration of 2 mM was prepared using ethanol/MQ water (volume ratio of 1:1). A clean plastic petri dish was lined with a filter paper which was dampened with a 1:1 solution of ethanol and MQ. The DropSens SPE was placed on the filter paper and 50 μL of the 2 mM LPA solution was dropped onto the working electrode. The petri dish was sealed with parafilm and placed in a fridge at 277 K for 24 hours. An additional 50 μL of the 2 mM LPA solution was cast onto a working electrode and returned to the fridge for another 24 hours. […]
All electrochemical measurements were preformed in faraday cages using DRP-CAC adapters for SPEs being measured. […] The experimental EIS curves were evaluated to determine the film resistance using ZSimpWin 2.0 software (available from AMETEK® Scientific Instruments of Berwyn, Pa., USA). […]
as §1

[3] = target: T1, TLR2/6 biosensor (TLR2 and TLR6 proteins immobilized on gold electrode); test: Response of TLR2/6 biosensors to Pam2CSK4 after 2 weeks storage under different conditions; settings: for detection response / activity in comparison to control: 50 μM Pam2CSK4; for activity in comparison to control: −33° C.
Experimental: Referring to FIGS. 2A-C, plots are shown that provide detection responses obtained from TLR2/6 biosensors in the presence of Pam2CSK4 with no storage, and with storage under different conditions for 2 weeks (see Example 5 for details). Columns labelled ‘A’ in FIGS. 2A-C correspond to detection responses of fresh (i.e., not stored) TLR2/6 biosensors to different concentrations of Pam2CSK4. Responses of TLR2/TLR6 biosensors stored in PBS buffer at −80° C. (see columns labelled ‘E’ in FIGS. 2A-2C) for two weeks to Pam2CSK4 were equivalent to the responses from freshly prepared biosensors. That is, there was no significant loss of performance under storage condition E (see Table 1).
Biosensors as described herein (e.g., TLR2/6 proteins immobilized onto conductive surfaces) were stored under varying conditions (see Table 1) for two weeks and then challenged by the PAMP (Pam2CSK4). As shown in FIGS. 2A-2C, a comparison was done of the responses from freshly prepared and stored biosensors were compared. Calibration curves including more concentration points are shown in FIGS. 6A-6D, where ΔRCT(%) is a normalized detection signal. ΔRCT(%)=[RCT (after exp.)−RCT (before exp.)]/RCT (before exp.), where “before exp.” refers to before exposure to analyte, and “after exp.” refers to after exposure to the analyte.
Three storage temperatures were selected, 4° C., −33° C., and −80° C. Ionic salt solutions are commonly used to maintain protein folding and stability, thus, to preserve the biosensor during storage, varying buffer solutions were used.
Batch B biosensors were stored in PBS buffer of pH˜7.4 at 4° C.
The storage conditions for Batch C was −33° C. in 50% v/v PBS buffer at pH ˜7.4 and glycerol. The storage conditions for Batch D was −33° C. in 50% v/v Tris buffer pH ˜7.7 and glycerol. […] However, the activity was reduced down to 30% in comparison to control.
The storage conditions for Batch E was −80° C. in PBS buffer at pH ˜7.4.
Batch F biosensors were stored at −80° C. in the absence of any buffer solution.
Batch G biosensors were disposed in a buffer solution that included amino acids. Specifically, Batch G buffer solution included 50 mM L-Arg, 50 mM L-Glu, 1 M NaCl and 200 mM imidazole in 50 mM Tris-HCl (pH˜8.0). The solution surrounded each biosensor in Batch G and they were kept at 4° C.
Different concentrations of Pam2CSK4 were used to trigger the responses. These concentrations were 0.1 μM for FIG. 2A; 1.0 μM for FIG. 2B; and 50 μM for FIG. 2C.

## lipopolysaccharide [Salmonella LPS]
[1]; LPS from 0.1 to 63.6 μg/ml, any concentration
  electrochemical response (ΔRct %): ≤ 40%

## Pam2CSK4
[1]; 0.1 μM analyte, fresh biosensors, 4 replicates
  electrochemical response (ΔRct %): 24±12%
[1]; 1 μM analyte, fresh biosensors, 4 replicates
  electrochemical response (ΔRct %): 58±13%
[1]; largest concentration, FIG. 4 comparison
  electrochemical response (ΔRct %): ~160%
[2]
  peak current (cyclic voltammogram) after exposure: 96 μA
[3]; freshly prepared biosensors (column A, no storage)
  detection response: 167±29%
[3]; storage condition G: 2 weeks, 4° C., amino acid buffer pH ~8.0
  detection response: 360±24%
[3]; Batch B: 2 weeks, PBS buffer pH ~7.4, 4° C.
  response after storage: no significant responses
[3]; Batch C: 2 weeks, 50% v/v PBS/glycerol
  activity in comparison to control: 30%
[3]; Batch D: 2 weeks, 50% v/v Tris/glycerol
  activity in comparison to control: 30%
[3]; Batch E: 2 weeks, −80° C., PBS buffer pH ~7.4, all concentrations
  response after storage versus control biosensor: within error of the control biosensor
[3]; Batch F: 2 weeks, −80° C., no buffer solution
  response after storage: lost most of their response
